Results taken from US11873303B2, “Substituted pyrazoles as type II IRAK inhibitors” (Merck Patent GmbH, priority 2018, dated 2024).

Legend:
[1] = tested on: TLR7 induced IL-6 secretion in human mononuclear cells (PBMC's); assay: TLR7 induced IL-6 in human PBMC's; type: cell-based; conditions: TLR7 ligand 2 uM overnight, IL-6 AlphaLISA
Description: TLR7 Induced IL-6 in Human PBMC's
Human PBMC assay was used as one of the functional assays to monitor the activity of IRAK1 and IRAK4 small molecule inhibitors on TLR7 induced IL-6 secretion in human mononuclear cells (PBMC's). Human PBMCs were prepared from buffy coats (whole blood enriched with leukocytes and platelets) obtained from healthy volunteers used either fresh or frozen were plated in assay media (RPMI+2% P/S/L-glu+10% HI-FBS) and pre-treated with compounds in DMSO/media (range of concentrations from 25 uM to 0.4 nM) or controls (0.25% DMSO) for 30 minutes at 37° C. in assay media. Following pre-treatment with IRAK1 and IRAK4 inhibitors, PBMC's were stimulated with TLR7 specific ligand (2 uM) overnight (16-18 hrs) at 37° C. After incubation supernatant was transferred to 384 well PE AlphaPlate-384 and IL-6 was quantified using Perkin Elmer IL-6 Alpha LISA kit (AL223C). Plates were read on an Envision® plate reader with Alpha Technology®.

[2] = molecular target: T1, IRAK4 (human purified recombinant enzyme His-TEV-IRAK4 (1-460)) (Homo sapiens, UniProt Q9NWZ3); assay: IRAK4 enzymatic assay (ADP-Glo luminescence); type: biochemical; conditions: human recombinant IRAK4, ATP 2 μM, STK1-biotin peptide
T1 construct: His-TEV-IRAK4 (1-460); His (N); TEV cleavage site (N)
T1 sequence (Q9NWZ3 1-460): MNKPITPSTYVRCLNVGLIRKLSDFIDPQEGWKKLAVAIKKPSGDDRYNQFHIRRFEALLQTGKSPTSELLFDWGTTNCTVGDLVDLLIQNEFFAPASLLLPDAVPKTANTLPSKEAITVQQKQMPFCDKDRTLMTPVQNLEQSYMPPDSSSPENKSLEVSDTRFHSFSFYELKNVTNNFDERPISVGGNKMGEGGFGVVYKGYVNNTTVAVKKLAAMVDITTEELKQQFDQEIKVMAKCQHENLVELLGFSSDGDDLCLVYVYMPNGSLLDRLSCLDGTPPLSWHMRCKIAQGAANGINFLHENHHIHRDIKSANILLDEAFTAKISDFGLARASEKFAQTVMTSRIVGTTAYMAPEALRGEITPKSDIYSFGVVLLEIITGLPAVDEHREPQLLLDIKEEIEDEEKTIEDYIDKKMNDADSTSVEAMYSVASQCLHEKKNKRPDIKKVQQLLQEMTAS
Description: IRAK4 is a human purified recombinant enzyme (His-TEV-IRAK4 (1-460)). In this assay, IRAK4 hydrolysed ATP, autophosphorylated and phosphorylated a Serine/Threonine generic peptidic substrate (STK: 61ST1BLC from CisBio International). Measurement of IRAK-4 inhibition was performed in 384-well format based on a luminescence assay (ADP-Glo™ Kinase Assay from Promega). Purified human recombinant IRAK4 (0.3 μg/ml) and serial diluted compounds in DMSO (range of concentration from 10 μM to 0.5 nM) or controls (1% DMSO) were incubated for 15 minutes at RT in assay buffer containing 50 mM Hepes pH 7.0, Fatty acid-free BSA 0.1%, Dithiothreitol (DTT) 2 mM, MgCl2 10 mM, EGTA 0.5 mM, Triton X-100 0.01%, MnCl2 5 mM. The kinase reaction was then initiated by the addition of ATP (2 μM) and the peptidic substrate STK1-biotin peptide (300 nM). After 2 hours of incubation at RT, the reaction was stopped and the unconsumed ATP depleted by the addition of ADP-Glo™ Reagent according to supplier instructions. After 40 minutes of incubation at RT, the Kinase Detection Reagent was then added to the assay plate according to supplier instructions. After 20 minutes of incubation at RT, the luminescence signal was measured with a plate-reading luminometer (PerkinElmer Envision or equivalent reader).

[3] = molecular target: T2, IRAK1 (human purified recombinant enzyme His-TEV-IRAK1 (194-712)) (Homo sapiens, UniProt P51617); assay: IRAK1 enzymatic assay (ADP-Glo luminescence); type: biochemical; conditions: human recombinant IRAK1, ATP 1 μM
T2 construct: His-TEV-IRAK1 (194-712); His (N); TEV cleavage site (N)
Description: IRAK1 is a human purified recombinant enzyme (His-TEV-IRAK1 (194-712)). In this assay, IRAK1 hydrolysed ATP and autophosphorylated. Measurement of IRAK-1 inhibition was performed in 384-well format based on luminescence assay (ADP-Glo™ Kinase Assay from Promega). Purified human recombinant IRAK1 (0.3 μg/ml) and serial diluted compounds in DMSO (range of concentration from 10 μM to 0.5 nM) or controls (1% DMSO) were incubated for 15 minutes at RT in assay buffer containing 50 mM Hepes pH 7.0, Fatty acid-free BSA 0.1%, Dithiothreitol (DTT) 2 mM, MgCl2 10 mM, EGTA 0.5 mM, Triton X-100 0.01%. The kinase reaction was then initiated by the addition of ATP at a concentration of 1 μM. After 2 hours of incubation at RT, the reaction was stopped and the unconsumed ATP depleted by the addition of ADP-Glo™ Reagent according to supplier instructions. After 40 minutes of incubation at RT, the Kinase Detection Reagent was then added to the assay plate according to supplier instructions. After 20 minutes of incubation at RT, the luminescence signal was measured with a luminometer (PerkinElmer Envision or equivalent reader).

T2 sequence (P51617 194-712): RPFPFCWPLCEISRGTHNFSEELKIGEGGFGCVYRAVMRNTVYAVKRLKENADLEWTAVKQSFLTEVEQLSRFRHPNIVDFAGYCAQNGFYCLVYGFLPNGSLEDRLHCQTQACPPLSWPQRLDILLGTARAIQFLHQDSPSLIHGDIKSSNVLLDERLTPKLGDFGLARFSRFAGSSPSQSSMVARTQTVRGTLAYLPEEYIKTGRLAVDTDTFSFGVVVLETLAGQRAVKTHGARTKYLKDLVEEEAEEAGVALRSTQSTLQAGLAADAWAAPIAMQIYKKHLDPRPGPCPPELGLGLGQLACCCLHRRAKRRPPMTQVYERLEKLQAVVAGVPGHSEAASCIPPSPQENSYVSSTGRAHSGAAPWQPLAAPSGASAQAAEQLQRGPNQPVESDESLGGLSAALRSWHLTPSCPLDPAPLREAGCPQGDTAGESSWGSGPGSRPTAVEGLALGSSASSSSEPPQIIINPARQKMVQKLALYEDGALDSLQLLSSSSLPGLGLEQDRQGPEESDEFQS

Structure (SMILES) | IC50 [2] | IC50 [3] | IC50 [1]
Cc1ccc(-n2nc(C(C)(C)C)cc2NC(=O)Nc2ccc(-c3csc4ncnc(N)c34)cc2)cc1 [Example 12, 1-[4-(4-Amino-thieno[2,3-d]pyrimidin-5-yl)-phenyl]-3-(5-tert-butyl-2-p-tolyl-2H-pyrazol-3-yl)-urea] | 100 to 1000 nM | < 100 nM | < 100 nM
Cc1ccc(-n2nc(C(C)(C)C)cc2NC(=O)Nc2ccc(-c3nn(C)c4ncnc(N)c34)c(F)c2)cc1 [Example 2, 1-[4-(4-Amino-1-methyl-1H-pyrazolo[3,4-d]pyrimidin-3-yl)-3-fluoro-phenyl]-3-(5-tert-butyl-2-p-tolyl-2H-pyrazol-3-yl)-urea] | < 100 nM | < 100 nM | < 100 nM
CC(C)c1ccc(-n2nc(C(C)(C)C)cc2NC(=O)Nc2ccc(-c3nn(C)c4ncnc(N)c34)cc2F)cc1 [Example 9, 1-(4-{4-amino-1-methyl-1H-pyrazolo[3,4-d]pyrimidin-3-yl}-2-fluorophenyl)-3-{3-tert-butyl-1-[4-(propan-2-yl)phenyl]-1H-pyrazol-5-yl}urea] | < 100 nM | < 100 nM | < 100 nM
CC(C)c1ccc(-n2nc(C(C)(C)C)cc2NC(=O)Nc2ccc(-c3nn(C)c4ncnc(N)c34)cc2)cc1 [Example 1, 1-(4-{4-amino-1-methyl-1H-pyrazolo[3,4-d]pyrimidin-3-yl}phenyl)-3-{3-tert-butyl-1-[4-(propan-2-yl)phenyl]-1H-pyrazol-5-yl}urea] | 100 to 1000 nM | < 100 nM | < 100 nM
Cc1ccc(-n2nc(C(C)(C)C)cc2NC(=O)Nc2ccc(-c3nn(C)c4ncnc(N)c34)cc2F)cc1 [Example 4, 1-[4-(4-Amino-1-methyl-1H-pyrazolo[3,4-d]pyrimidin-3-yl)-2-fluoro-phenyl]-3-(5-tert-butyl-2-p-tolyl-2H-pyrazol-3-yl)-urea] | < 100 nM | < 100 nM | < 100 nM
CC(C)c1ccc(-n2nc(C(C)(C)C)cc2NC(=O)Nc2ccc(-c3nn(C)c4ccnc(N)c34)cc2)cc1 [Example 14, 1-[4-(4-Amino-1-methyl-1H-pyrazolo[4,3-c]pyridin-3-yl)-phenyl]-3-[5-tert-butyl-2-(4-isopropyl-phenyl)-2H-pyrazol-3-yl]-urea] | 100 to 1000 nM | < 100 nM | < 100 nM
Cc1ccc(-n2nc(C(C)(C)C)cc2NC(=O)Nc2ccc(-c3csc4ncnc(N)c34)cc2F)cc1 [Example 7, 1-[4-(4-Amino-thieno[2,3-d]pyrimidin-5-yl)-2-fluoro-phenyl]-3-(5-tert-butyl-2-p-tolyl-2H-pyrazol-3-yl)-urea] | < 100 nM | < 100 nM | < 100 nM
Cc1ccc(-n2nc(C(C)(C)C)cc2NC(=O)Nc2ccc(-c3csc4ncnc(N)c34)c(Cl)c2)cc1 [Example 10, 1-[4-(4-Amino-thieno[2,3-d]pyrimidin-5-yl)-3-chloro-phenyl]-3-(5-tert-butyl-2-p-tolyl-2H-pyrazol-3-yl)-urea] | 100 to 1000 nM | < 100 nM | < 100 nM
Cc1ccc(-n2nc(C(C)(C)C)cc2NC(=O)Nc2ccc(-c3csc4ncnc(N)c34)cc2Cl)cc1 [Example 11, 1-[4-(4-Amino-thieno[2,3-d]pyrimidin-5-yl)-2-chloro-phenyl]-3-(5-tert-butyl-2-p-tolyl-2H-pyrazol-3-yl)-urea] | 1000 to 5000 nM | < 100 nM | < 100 nM

Continued, in another order:

IC50 [2] | IC50 [3] | Structure (SMILES) | IC50 [1]
< 100 nM | < 100 nM | Cc1ccc(-n2nc(C(C)(C)C)cc2NC(=O)C(=O)c2ccc(-c3nn(C)c4ncnc(N)c34)cc2)cc1 [Example 20, 2-[4-(4-Amino-1-methyl-1H-pyrazolo[3,4-d]pyrimidin-3-yl)-phenyl]-N-(5-tert-butyl-2-p-tolyl-2H-pyrazol-3-yl)-2-oxo-acetamide] | 1000 to 5000 nM
1000 to 5000 nM | < 100 nM | CC(C)c1ccc(-n2nc(C(C)(C)C)cc2NC(=O)Cc2ccc(-c3nn(C)c4ncnc(N)c34)cc2)cc1 [Example 15, 2-[4-(4-Amino-1-methyl-1H-pyrazolo[3,4-d]pyrimidin-3-yl)-phenyl]-N-[5-tert-butyl-2-(4-isopropyl-phenyl)-2H-pyrazol-3-yl]-acetamide] | 1000 to 5000 nM
100 to 1000 nM | < 100 nM | Cc1ccc(-n2nc(C(C)(C)C)cc2NC(=O)Nc2ccc(-c3nn(C)c4ncnc(N)c34)cc2Cl)cc1F [Example 29, 1-[4-(4-Amino-1-methyl-1H-pyrazolo[3,4-d]pyrimidin-3-yl)-2-chloro-phenyl]-3-[5-tert-butyl-2-(3-fluoro-4-methyl-phenyl)-2H-pyrazol-3-yl]-urea] | –
1000 to 5000 nM | 100 to 1000 nM | Cc1ccc(-n2nc(C(C)(C)C#N)cc2NC(=O)Nc2ccc(-c3csc4ncnc(N)c34)cc2Cl)cc1 [Example 22, 1-[4-(4-Amino-thieno[2,3-d]pyrimidin-5-yl)-2-chloro-phenyl]-3-[5-(cyano-dimethyl-methyl)-2-p-tolyl-2H-pyrazol-3-yl]-urea] | > 5000 nM
< 100 nM | < 100 nM | Cc1ccc(-n2nc(C(C)(C)C)cc2NC(=O)NC2CC=C(c3cn(C)c4ncnc(N)c34)CC2)cc1 (stereo not drawn) [Example 25, 1-[4-(4-Amino-7-methyl-7H-pyrrolo[2,3-d]pyrimidin-5-yl)-cyclohex-3-enyl]-3-(5-tert-butyl-2-p-tolyl-2H-pyrazol-3-yl)-urea] | –
1000 to 5000 nM | < 100 nM | Cc1ccc(-n2nc(C(C)(C)C)cc2NC(=O)Nc2ccc(-c3csc4ncnc(N)c34)c(F)c2Cl)cc1 [Example 23, 1-[4-(4-Amino-thieno[2,3-d]pyrimidin-5-yl)-2-chloro-3-fluoro-phenyl]-3-(5-tert-butyl-2-p-tolyl-2H-pyrazol-3-yl)-urea] | < 100 nM
> 5000 nM | 100 to 1000 nM | Cc1ccc(-n2nc(C(C)(C)CO)cc2NC(=O)Nc2ccc(-c3csc4ncnc(N)c34)cc2Cl)cc1 [Example 21, 1-(4-{4-aminothieno[2,3-d]pyrimidin-5-yl}-2-chlorophenyl)-3-[3-(1-hydroxy-2-methylpropan-2-yl)-1-(4-methylphenyl)-1H-pyrazol-5-yl]urea] | > 5000 nM
100 to 1000 nM | < 100 nM | Cn1nc(-c2ccc(NC(=O)Nc3cc(C(C)(C)C)nn3-c3ccc(C#N)cc3)c(Cl)c2)c2c(N)ncnc21 [Example 28, 1-(4-{4-amino-1-methyl-1H-pyrazolo[3,4-d]pyrimidin-3-yl}-2-chlorophenyl)-3-[3-tert-butyl-1-(4-cyanophenyl)-1H-pyrazol-5-yl]urea] | –
